molecular target: T1, Human TRPC6 (Homo sapiens, UniProt Q9Y210); assay: Evaluation of TRPC6 channel inhibitory activity (1), FLIPR Calcium 5 Assay Kit, OAG stimulation (Compound Nos. 1-1293); type: cell-based; settings: not given
T1 construct: expressed in transfected cells
T1 sequence (Q9Y210 1-931): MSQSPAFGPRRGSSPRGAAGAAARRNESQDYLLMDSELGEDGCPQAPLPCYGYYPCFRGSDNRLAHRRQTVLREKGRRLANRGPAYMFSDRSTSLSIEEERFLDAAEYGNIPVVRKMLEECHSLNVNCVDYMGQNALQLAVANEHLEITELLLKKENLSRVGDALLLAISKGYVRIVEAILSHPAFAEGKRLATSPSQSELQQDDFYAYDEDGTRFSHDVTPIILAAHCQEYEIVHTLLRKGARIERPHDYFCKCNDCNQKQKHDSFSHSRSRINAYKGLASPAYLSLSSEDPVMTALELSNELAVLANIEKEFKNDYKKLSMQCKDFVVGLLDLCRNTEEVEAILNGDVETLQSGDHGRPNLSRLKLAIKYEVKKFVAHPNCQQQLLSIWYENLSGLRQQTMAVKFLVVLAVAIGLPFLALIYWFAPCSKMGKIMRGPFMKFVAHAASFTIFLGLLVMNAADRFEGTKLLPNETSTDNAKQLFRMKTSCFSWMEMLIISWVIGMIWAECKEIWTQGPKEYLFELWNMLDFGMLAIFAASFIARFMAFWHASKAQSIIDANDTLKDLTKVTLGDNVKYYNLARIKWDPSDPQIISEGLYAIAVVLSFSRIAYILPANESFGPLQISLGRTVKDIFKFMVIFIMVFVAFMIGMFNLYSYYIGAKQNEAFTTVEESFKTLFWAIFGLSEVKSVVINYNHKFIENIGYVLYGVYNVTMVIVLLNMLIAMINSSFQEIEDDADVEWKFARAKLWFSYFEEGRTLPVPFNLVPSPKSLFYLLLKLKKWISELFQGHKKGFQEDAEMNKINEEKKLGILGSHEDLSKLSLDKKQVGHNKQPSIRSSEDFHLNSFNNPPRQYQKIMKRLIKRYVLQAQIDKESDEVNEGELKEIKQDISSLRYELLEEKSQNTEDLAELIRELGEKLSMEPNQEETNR
Summary of the method: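 Stable human TRPC6 line; fluorescent Ca2+ dye loading, then 20 min compound exposure before 30 μM OAG trigger. Peak-minus-baseline signal converted to % inhibition against untreated and unstimulated wells; potency given as pIC50 band.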

`Cc1cc(Oc2cc(C#N)ccc2-c2ncc(CN)cn2)cc(N2C3CCC2CC3)n1` [compound 826, 4-[5-(aminomethyl)pyrimidin-2-yl]-3-[2-(7-azabicyclo[2.2.1]heptan-7-yl)-6-methylpyridin-4-yl]oxybenzonitrile] and `Cc1cc(Oc2cc(C#N)ccc2-c2ncc(CCN)cn2)cc(N2C3CCC2CC3)n1` [compound 827, 4-[5-(2-aminoethyl)pyrimidin-2-yl]-3-[2-(7-azabicyclo[2.2.1]heptan-7-yl)-6-methylpyridin-4-yl]oxybenzonitrile] cannot be ordered by IC50: under 10 nM for the first, under 10 nM for the second.

same assay, conditions: Human TRPC6 stably-expressing cells, OAG 30 μM, FLIPR Calcium 5 Assay Kit; read-out: Inhibitory activity (pIC50 class) (converted)

`Cc1nn(CC(C)C)cc1Oc1cc(C#N)ccc1-c1ncc(CCN)cn1` [compound 801, 4-[5-(2-aminoethyl)pyrimidin-2-yl]-3-[3-methyl-1-(2-methylpropyl)pyrazol-4-yl]oxybenzonitrile] and `Cc1nn(CC(C)C)cc1Oc1cc(C#N)ccc1-c1ncc(CN)cn1` [compound 802, 4-[5-(aminomethyl)pyrimidin-2-yl]-3-[3-methyl-1-(2-methylpropyl)pyrazol-4-yl]oxybenzonitrile] cannot be ordered by IC50: under 10 nM for the first, under 10 nM for the second.

Compared with `Cc1nn(C(C)C)cc1Oc1cc(C#N)ccc1-c1ncc(CCN)cn1` [compound 803, 4-[5-(2-aminoethyl)pyrimidin-2-yl]-3-(3-methyl-1-propan-2-ylpyrazol-4-yl)oxybenzonitrile], `Cc1c(Oc2cc(C#N)ccc2-c2ncc(CCN)cn2)cnn1C(C)C` [compound 806, 4-[5-(2-aminoethyl)pyrimidin-2-yl]-3-(5-methyl-1-propan-2-ylpyrazol-4-yl)oxybenzonitrile] is higher in IC50: under 10 nM for the first, 10 to 1000 nM for the second.

`Cc1c(Oc2cc(C#N)ccc2-c2ncc(CCN)cn2)cnn1CC(C)C` [compound 804, 4-[5-(2-aminoethyl)pyrimidin-2-yl]-3-[5-methyl-1-(2-methylpropyl)pyrazol-4-yl]oxybenzonitrile] and `Cc1c(Oc2cc(C#N)ccc2-c2ncc(CN)cn2)cnn1CC(C)C` [compound 805, 4-[5-(aminomethyl)pyrimidin-2-yl]-3-[5-methyl-1-(2-methylpropyl)pyrazol-4-yl]oxybenzonitrile] fall in the same range of IC50: 10 to 1000 nM for the first, 10 to 1000 nM for the second.

`N#Cc1ccc(-c2ccc(CCN)cc2)c(Oc2sc(-c3ccccc3)nc2C#N)c1` [compound 807, 5-[2-[4-(2-aminoethyl)phenyl]-5-cyanophenoxy]-2-phenyl-1,3-thiazole-4-carbonitrile] and `Cc1c(Oc2cc(C#N)ccc2-c2ncc(CCN)cn2)cnn1-c1ccccn1` [compound 830, 4-[5-(2-aminoethyl)pyrimidin-2-yl]-3-(5-methyl-1-pyridin-2-ylpyrazol-4-yl)oxybenzonitrile] fall in the same range of IC50: 10 to 1000 nM for the first, 10 to 1000 nM for the second.

`C[C@@H](N)c1cnc(-c2ccc(C#N)cc2Oc2cc(-c3ccccn3)nn2C)nc1` [compound 808, 4-[5-[(1R)-1-aminoethyl]pyrimidin-2-yl]-3-(2-methyl-5-pyridin-2-ylpyrazol-3-yl)oxybenzonitrile] and `C[C@H](N)c1cnc(-c2ccc(C#N)cc2Oc2cc(-c3ccccn3)nn2C)nc1` [compound 809, 4-[5-[(1S)-1-aminoethyl]pyrimidin-2-yl]-3-(2-methyl-5-pyridin-2-ylpyrazol-3-yl)oxybenzonitrile] cannot be ordered by IC50: under 10 nM for the first, under 10 nM for the second.

`Cn1nc(C(F)(F)F)cc1Oc1cc(C#N)ccc1-c1ccc(CN)cn1` [compound 810, 4-[5-(aminomethyl)pyridin-2-yl]-3-[2-methyl-5-(trifluoromethyl)pyrazol-3-yl]oxybenzonitrile] and `Cn1nc(C(F)F)cc1Oc1cc(C#N)ccc1-c1ccc(CN)cn1` [compound 828, 4-[5-(aminomethyl)pyridin-2-yl]-3-[5-(difluoromethyl)-2-methylpyrazol-3-yl]oxybenzonitrile] cannot be ordered by IC50: under 10 nM for the first, under 10 nM for the second.

`Cn1nc(C(F)(F)F)cc1Oc1cc(C#N)ccc1-c1ncc(CCN)cn1` [compound 812, 4-[5-(2-aminoethyl)pyrimidin-2-yl]-3-[2-methyl-5-(tritluoromethyl)pyrazol-3-yl]oxybenzonitrile] and `CN(CCF)c1cc(Oc2cc(C#N)ccc2-c2ncc(CCN)cn2)n(C)n1` [compound 822, 4-[5-(2-aminoethyl)pyrimidin-2-yl]-3-[5-[2-fluoroethyl(methyl)amino]-2-methylpyrazol-3-yl]oxybenzonitrile] cannot be ordered by IC50: under 10 nM for the first, under 10 nM for the second.

`CC(C)c1nc(Oc2cc(C#N)ccc2-c2ncc(CCN)cn2)n(C)n1` [compound 813, 4-[5-(2-aminoethyl)pyrimidin-2-yl]-3-[(2-methyl-5-propan-2-yl-1,2,4-triazol-3-yl)oxy]benzonitrile] and `CC(C)c1nc(Oc2cc(C#N)ccc2-c2ncc(CN)cn2)n(C)n1` [compound 814, 4-[5-(aminomethyl)pyrimidin-2-yl]-3-[(2-methyl-5-propan-2-yl-1,2,4-triazol-3-yl)oxy]benzonitrile] cannot be ordered by IC50: over 1000 nM for the first, over 1000 nM for the second.

`N#Cc1ccc(-c2ncc(CN)cn2)c(Oc2cc(N3CCCCC3)nnc2Cl)c1` [compound 815, 4-[5-(aminomethyl)pyrimidin-2-yl]-3-(3-chloro-6-piperidin-1-ylpyridazin-4-yl)oxybenzonitrile] and `Cc1nnc(N2CCCCC2)cc1Oc1cc(C#N)ccc1-c1ncc(CN)cn1` [compound 821, 4-[5-(aminomethyl)pyrimidin-2-yl]-3-(3-methyl-6-piperidin-1-ylpyridazin-4-yl)oxybenzonitrile] fall in the same range of IC50: 10 to 1000 nM for the first, 10 to 1000 nM for the second.

First: N#Cc1ccc(-c2ncc(CN)cn2)c(Oc2cc(Cl)nnc2N2CCCCC2)c1 [compound 816, 4-[5-(aminomethyl)pyrimidin-2-yl]-3-(6-chloro-3-piperidin-1-ylpyridazin-4-yl)oxybenzonitrile]
Second: Cc1nnc(N2CCCC2)cc1Oc1cc(C#N)ccc1-c1ncc(CN)cn1 [compound 824, 4-[5-(aminomethyl)pyrimidin-2-yl]-3-(3-methyl-6-pyrrolidin-1-ylpyridazin-4-yl)oxybenzonitrile]
The IC50 of the first is higher: over 1000 nM for the first, 10 to 1000 nM for the second.

`N#Cc1ccc(-c2ncc(CN)cn2)c(Oc2cnnc(-c3ccccn3)c2)c1` [compound 817, 4-[5-(aminomethyl)pyrimidin-2-yl]-3-(6-pyridin-2-ylpyridazin-4 yl)oxybenzonitrile] and `N#Cc1ccc(-c2ncc(CN)cn2)c(Oc2cnnc(-n3ccccc3=O)c2)c1` [compound 820, 4-[5-(aminomethyl)pyrimidin-2-yl]-3-[6-(2-oxopyridin-1-yl)pyridazin-4-yl]oxybenzonitrile] cannot be ordered by IC50: over 1000 nM for the first, over 1000 nM for the second.

`N#Cc1ccc(-c2ncc(CN)cn2)c(Oc2cnnc(OC3CCCC3)c2)c1` [compound 818, 4-[5-(aminomethyl)pyrimidin-2-yl]-3-(6-cyclopentyloxypyridazin-4-yl)oxybenzonitrile] and `CC(C)COc1cc(Oc2cc(C#N)ccc2-c2ncc(CN)cn2)cnn1` [compound 819, 4-[5-(aminomethyl)pyrimidin-2-yl]-3-[6-(2-methylpropoxy)pyridazin-4-yl]oxybenzonitrile] fall in the same range of IC50: 10 to 1000 nM for the first, 10 to 1000 nM for the second.

First: Cn1nc(N(CCF)CCF)cc1Oc1cc(C#N)ccc1-c1ncc(CCN)cn1 [compound 823, 4-[5-(2-aminoethyl)pyrimidin-2-yl]-3-[5-[bis(2-fluoroethyl)amino]-2-methylpyrazol-3-yl]oxybenzonitrile]
Second: Cn1nc(C(F)F)cc1Oc1cc(C#N)ccc1-c1ncc(CN)cn1 [compound 829, 4-[5-(aminomethyl)pyrimidin-2-yl]-3-[5-(difluoromethyl)-2-methylpyrazol-3-yl]oxybenzonitrile]
The IC50 of the first is lower: under 10 nM for the first, 10 to 1000 nM for the second.

Compared with `Cc1nnc(N2CCOCC2)cc1Oc1cc(C#N)ccc1-c1ncc(CN)cn1` [compound 825, 4-[5-(aminomethyl)pyrimidin-2-yl]-3-(3-methyl-6-morpholin-4-ylpyridazin-4-yl)oxybenzonitrile], `Cc1nn(-c2ccccn2)cc1Oc1cc(C#N)ccc1-c1ncc(CN)cn1` [compound 833, 4-[5-(aminomethyl)pyrimidin-2-yl]-3-(3-methyl-1-pyridin-2-ylpyrazol-4 yl)oxybenzonitrile] is lower in IC50: 10 to 1000 nM for the first, under 10 nM for the second.

Compared with `Cc1c(Oc2cc(C#N)ccc2-c2ncc(CN)cn2)cnn1-c1ccccn1` [compound 831, 4-[5-(aminomethyl)pyrimidin-2-yl]-3-(5-methyl-1-pyridin-2-ylpyrazol-4-yl)oxybenzonitrile], `Cc1nn(-c2ccccn2)cc1Oc1cc(C#N)ccc1-c1ncc(CCN)cn1` [compound 832, 4-[5-(2-aminoethyl)pyrimidin-2-yl]-3-(3-methyl-1-pyridin-2-ylpyrazol-4-yl)oxybenzonitrile] is lower in IC50: over 1000 nM for the first, under 10 nM for the second.

Reference: US20230167073A1 (Teijin Pharma Limited, priority 2020, published 2023)
